# Assay results reported in patent EP1207159A1, “Aromaheterocyclic derivatives as dopamine D4 receptor antagonists” (TAISHO PHARMACEUTICAL CO. LTD, priority 1993, dated 1999).
# Where a name gives a salt, the structure may show the parent alone.
# Tests used:
# [1] = molecular target: T1, human D4.2 receptor (Homo sapiens, UniProt P21917, DEL265-296); experiment: Dopamine D4 receptor binding assay ([3H]spiperone, CHO cell membranes); details: 50% inhibition of [3H]spiperone binding; CHO cell membranes expressing human D4.2 receptor; 27°C, 2 hours
# T1 construct: expressed in transfected cells; host or cells: CHO cells (membranes)
# T1 sequence (P21917 with tags, fused parts or gaps DEL265-296): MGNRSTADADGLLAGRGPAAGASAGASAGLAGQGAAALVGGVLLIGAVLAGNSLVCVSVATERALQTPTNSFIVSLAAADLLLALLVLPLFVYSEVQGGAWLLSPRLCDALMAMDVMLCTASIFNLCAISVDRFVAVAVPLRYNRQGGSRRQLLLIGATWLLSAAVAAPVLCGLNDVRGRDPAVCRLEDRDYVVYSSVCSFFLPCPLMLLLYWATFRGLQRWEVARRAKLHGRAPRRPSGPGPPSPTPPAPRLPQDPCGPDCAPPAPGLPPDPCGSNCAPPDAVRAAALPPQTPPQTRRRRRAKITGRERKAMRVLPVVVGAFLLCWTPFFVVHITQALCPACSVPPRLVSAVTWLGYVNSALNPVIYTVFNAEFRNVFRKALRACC
# Procedure: Chinese hamster ovarium (CHO) cell membranes wherein human D4.2 receptor was expressed were used as a receptor preparation.
# [^3H]spiperone was used as [^3H]-labeled ligand.
# A binding reaction using the [^3H]-labeled ligand was carried out according to the following method as described in Eur. J. Pharmacol., 233, 173(1993).
# Dopamine D4.2 Receptor Binding Assay: The CHO cell membranes wherein human D4.2 receptor was expressed, [^3H]spiperone ([…]) and each test drug were reacted in 50 mM Tris-hydrochloric acid buffer (pH 7.4) containing 5 mM EDTA, 1.5 mM CaCl2, 5 mM KCl and 120 mM NaCl at 27°C for 2 hours.
# After completion of the reaction, the reaction solution was filtered by suction through a glass filter (GF/B), and the radioactivity on the filter was measured by a liquid scintillation spectrometer.
# The binding under the reaction in the presence of 10 µM haloperidol was defined as non-specific binding of [^3H]spiperone, and the difference between the total binding and the non-specific binding was defined as specific binding.
# [2] = molecular target: T2, Dopamine D2 Receptor (Rattus norvegicus, UniProt P61169); experiment: Dopamine D2 receptor binding assay ([3H]raclopride, rat striatum membrane); details: 50% inhibition of [3H]raclopride (1 nM) binding, 25°C, an hour
# T2 construct: Rat striatum was homogenized in 50 mM Tris-hydrochloric acid buffer (pH 7.4), centrifuged at 48,000 × g; from tissue; host or cells: rat striatum membrane
# T2 sequence (P61169 whole entry): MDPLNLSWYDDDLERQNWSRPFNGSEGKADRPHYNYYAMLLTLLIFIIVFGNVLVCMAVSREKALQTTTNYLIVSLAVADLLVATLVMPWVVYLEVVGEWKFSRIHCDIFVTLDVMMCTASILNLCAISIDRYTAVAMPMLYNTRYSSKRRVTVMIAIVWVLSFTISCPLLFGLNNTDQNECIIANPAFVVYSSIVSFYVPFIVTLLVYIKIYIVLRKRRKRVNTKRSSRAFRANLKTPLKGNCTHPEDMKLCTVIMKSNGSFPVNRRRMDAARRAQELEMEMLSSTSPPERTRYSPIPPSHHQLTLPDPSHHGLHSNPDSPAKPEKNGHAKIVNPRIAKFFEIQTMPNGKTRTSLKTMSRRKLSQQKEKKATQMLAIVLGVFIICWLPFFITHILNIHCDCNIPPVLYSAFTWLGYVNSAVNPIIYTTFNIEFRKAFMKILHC
# Procedure: Rat striatum membrane was used as a receptor preparation.
# [^3H]raclopride was used as [^3H]-labeled ligand.
# A binding reaction using the [^3H]-labeled ligand was carried out according to the following method as described in Mol. J. Pharmacol., 43, 749(1993).
# Preparation of Receptor Preparation: Rat striatum was homogenized in 50 mM Tris-hydrochloric acid buffer (pH 7.4), centrifuged at 48,000 × g, and the precipitate was washed once with a Tris-hydrochloric acid buffer. The precipitate was suspended in 50 mM Tris-hydrochloric acid buffer (pH 7.4) containing 120 mM NaCl, 1.5 mM KCl, 2 mM CaCl2 and 1 mM MgCl2 to give a membrane preparation.
# Dopamine D2 Receptor Binding Assay: The membrane preparation (0.5 mg of protein/ml), [^3H]raclopride (1 nM) and each test drug were reacted at 25°C for an hour.
# After completion of the reaction, the reaction solution was filtered by suction through a glass filter (GF/B), and the radioactivity on the filter was determined by a liquid scintillation spectrometer.
# The binding under the reaction in the presence of 10 µM haloperidol was defined as non-specific binding of [^3H]raclopride, and the difference between total binding and non-specific binding was defined as specific binding. […]
IC50 [1],IC50 [2],SMILES
4.53 nM,521 nM,Fc1ccc(-c2ncncc2CCN2CCC(=Cc3cccc(F)c3)CC2)cc1 [Compound A-11]
1.12 nM,89 nM,Fc1ccc(C=C2CCN(CCc3cn[nH]c3-c3ccccc3)CC2)cc1 [Compound A-05]

SMILES,IC50 [1],IC50 [2]
"CSc1ncc(CCN2CCC(=Cc3ccccc3F)CC2)c(-c2ccc(F)cc2)n1 [Compound A-14, 4-(4-fluorophenyl)-5-[2-[4-(2-fluorobenzylidene)piperidin-1-yl]ethyl]-2-methylthiopyrimidine dihydrochloride]",12.6 nM,148 nM
